Measurements taken from patent publication US9302999B2, “Substituted triazoles as herbicides” (E. I. DU PONT DE NEMOURS AND COMPANY, priority 2012, dated 2016).

What was measured:
[1] = tested on: canarygrass (Phalaris minor); test: Test C postemergence: canarygrass; assay type: in vivo
Procedure, shortened: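 Visual ratings of 0 (no effect) to 100 (complete control) were made against controls 13-15 days after a postemergence spray, with plants kept in a greenhouse. Plants were 2-18 cm tall (1- to 4-leaf stage) in Redi-Earth peat/vermiculite medium at treatment.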

[2] = tested on: deadnettle (henbit deadnettle, Lamium amplexicaule); test: Test C postemergence: deadnettle; assay type: in vivo
Text: (§1) At the same time, plants selected from these crop and weed species and also barley (winter barley, Hordeum vulgare), canarygrass (Phalaris minor), chickweed (common chickweed, Stellaria media) windgrass (Apera spica-venti) and deadnettle (henbit deadnettle, Lamium amplexicaule) were planted in pots containing Redi-Earth® planting medium (Scotts Company, 14111 Scottslawn Road, Marysville, Ohio 43041) comprising spaghnum peat moss, vermiculite, wetting agent and starter nutrients and treated with postemergence applications of test chemicals formulated in the same manner. Plants ranged in height from 2 to 18 cm (1- to 4-leaf stage) for postemergence treatments.
(§2) Treated plants and controls were maintained in a greenhouse for 13 to 15 days, after which time all species were compared to controls and visually evaluated. Plant response ratings, summarized in Table C, are based on a scale of 0 to 100 where 0 is no effect and 100 is complete control. A dash (-) response means no test result.

[3] = tested on: barnyardgrass (Echinochloa crus-galli); test: Test F pre-/postemergence: barnyardgrass; assay type: in vivo
Text: Seeds of plant species selected from corn (Zea mays), soybean (Glycine max), velvetleaf (Abutilon theophrasti), lambsquarters (Chenopodium album), poinsettia, wild (wild poinsettia, Euphorbia heterophylla), pigweed, palmer (palmer pigweed, Amaranthus palmeri), waterhemp (common waterhemp, Amaranthus rudis), surinam grass (Brachiaria decumbens), crabgrass, Brazil (Brazilian crabgrass, Digitaria horizontalis), panicum, fall (fall panicum Panicum dichotomiflorum), crabgrass, large (large crabgrass, Digitaria sanguinalis), foxtail, giant (giant foxtail, Setaria faberii), foxtail, green (green foxtail Setaria viridis), goosegrass (Eleusine indica), ragweed (common ragweed, Ambrosia elatior), barnyardgrass (Echinochloa crus-galli), sandbur (southern sandbur, Cenchrus echinatus), arrowleaf sida (Sida rhombifolia), ryegrass, Italian (Italian ryegrass, Lolium multiflorum), dayflower, VA (Virginia (VA) dayflower, Commelina virginica), field bindweed (Convolvulus arvensis), cocklebur (common cocklebur, Xanthium strumarium), morningglory (Ipomoea coccinea), nightshade (eastern black nightshade, Solanum ptycanthum), kochia (Kochia scoparia), nutsedge, yellow (yellow nutsedge, Cyperus esculentus), johnsongrass (Sorghum halepense), smartweed (ladysthumb smartweed, Polygonum persicaria), and beggarticks (hairy beggarticks, Bidens pilosa), were planted into a silt loam soil and treated preemergence with test chemicals formulated in a non-phytotoxic solvent mixture which included a surfactant. At the same time, plants selected from these crop and weed species and also pigweed (Amaranthus retroflexus), waterhemp_RES1 (ALS/Triazine resistant common waterhemp, Amaranthus rudis) and waterhemp_RES2 (ALS/HPPD resistant common waterhemp, Amaranthus rudis) were planted in pots containing a planting medium comprising spaghnum peat moss, vermiculite, wetting agent and starter nutrients treated with postemergence applications of some of the test chemicals formulated in the same manner. Plants ranged in height from 2 to 18 cm for postemergence treatments (1- to 4-leaf stage).
as §2, with “14” for “13”, “21” for “15”, “E,” for “C,”

[4] = tested on: ryegrass, Italian (Italian ryegrass, Lolium multiflorum); test: Test D pre-/postemergence: ryegrass, Italian; assay type: in vivo
Text: Seeds of plant species selected from bluegrass (annual bluegrass, Poa annua), blackgrass (Alopecurus myosuroides), canarygrass (Phalaris minor), chickweed (common chickweed, Stellaria media), galium (catchweed bedstraw, Galium aparine), bromegrass, downy (downy bromegrass, Bromus tectorum), field poppy (Papaver rhoeas), field violet (Viola arvensis), foxtail, green (green foxtail, Setaria viridis), deadnettle (henbit deadnettle, Lamium amplexicaule), ryegrass, Italian (Italian ryegrass, Lolium multiflorum), kochia (Kochia scoparia), lambsquarters (Chenopodium album), oilseed rape (Brassica napus), pigweed (Amaranthus retroflexus), Russian thistle (Salsola iberica), chamomile (scentless chamomile, Matricaria inodora), speedwell (bird's-eye speedwell, Veronica persica), barley, spring (spring barley, Hordeum vulgare), wheat, spring (spring wheat, Triticum aestivum), buckwheat, wild (wild buckwheat, Polygonum convolvulus), mustard, wild (wild mustard, Sinapis arvensis), oat, wild (wild oat, Avena fatua), radish, wild (wild radish, Raphanus raphanistrum), windgrass (Apera spica-venti), barley, winter (winter barley, Hordeum vulgare), and wheat, winter (winter wheat, Triticum aestivum) were planted into a silt loam soil and treated preemergence with test chemicals formulated in a non-phytotoxic solvent mixture which included a surfactant. At the same time, these same crop and weed species were planted in pots containing the planting medium comprising spaghnum peat moss, vermiculite, wetting agent and starter nutrients and treated with postemergence applications of the test chemicals formulated in the same manner. Plants ranged in height from 2 to 18 cm (1- to 4-leaf stage).
as §2, with “controlled growth environment” for “greenhouse”, “14” for “13”, “21 days” for “15 days,”, “D,” for “C,”

Waterhemp = test: Test C postemergence: waterhemp; assay type: in vivo, Amaranthus rudis; settings: 125 g ai/ha, scale 0 to 100, 0 no effect, 100 complete control
Text: (§3) Seeds of plant species selected from blackgrass (Alopecurus myosuroides), bromegrass, downy (downy bromegrass, Bromus tectorum), foxtail, green (green foxtail, Setaria viridis), ryegrass, Italian (Italian ryegrass, Lolium multiflorum), winter wheat (Triticum aestivum), wild oat (Avena fatua), galium (catchweed bedstraw, Galium aparine), bermudagrass (Cynodon dactylon), surinam grass (Brachiaria decumbens), cocklebur (common cocklebur, Xanthium strumarium), corn (Zea mays), large crabgrass (Digitaria sanguinalis), woolly cupgrass (Eriochloa villosa), foxtail, giant (giant foxtail, Setaria faberii), goosegrass (Eleusine indica), johnsongrass (Sorghum halepense), kochia (Kochia scoparia), lambsquarters (Chenopodium album), morningglory (Ipomoea coccinea), nightshade (eastern black nightshade, Solanum ptycanthum), nutsedge, yellow (yellow nutsedge, Cyperus esculentus), pigweed (Amaranthus retroflexus), ragweed (common ragweed, Ambrosia elation), soybean (Glycine max), common (oilseed) sunflower (Helianthus annuus), Russian thistle (Salsola kali) and velvetleaf (Abutilon theophrasti) were planted into a blend of loam soil and sand and treated preemergence with test chemicals formulated in a non-phytotoxic solvent mixture which included a surfactant.
as §1, §2

Oilseed Rape = test: Test C pre-/postemergence: oilseed rape; assay type: in vivo; settings: scale 0 to 100, 0 no effect, 100 complete control
Text: as §3, §1, §2

[5] = 31 g ai/ha, scale 0 to 100 (0 no effect, 100 complete control)
[6] = 62 g ai/ha, scale 0 to 100 (0 no effect, 100 complete control)
[7] = 125 g ai/ha, scale 0 to 100, 0 no effect, 100 complete control
[8] = Preemergence, 16 g ai/ha, scale 0 to 100, 0 no effect, 100 complete control
[9] = Preemergence, 31 g ai/ha, scale 0 to 100, 0 no effect, 100 complete control
[10] = Preemergence, 62 g ai/ha, scale 0 to 100
[11] = Preemergence, 125 g ai/ha, scale 0 to 100
[12] = Preemergence, 250 g ai/ha, scale 0 to 100
[13] = Postemergence, 16 g ai/ha, scale 0 to 100

| SMILES | Plant response rating, Canarygrass [1, 5] | Plant response rating, Canarygrass [1, 6] | Plant response rating, Canarygrass [1, 7] | Plant response rating, Canarygrass ([1]; 250 g ai/ha, scale 0 to 100) | Plant response rating, Deadnettle [2, 5] | Plant response rating, Deadnettle [2, 6] | Plant response rating, Deadnettle [2, 7] | Plant response rating, Deadnettle ([2]; 250 g ai/ha, scale 0 to 100) | Plant response rating, Barnyardgrass [3, 8] | Plant response rating, Barnyardgrass [3, 9] | Plant response rating, Barnyardgrass [3, 10] | Plant response rating, Barnyardgrass [3, 11] | Plant response rating, Barnyardgrass [3, 12] | also measured |
| --- | --- | --- | --- | --- | --- | --- | --- | --- | --- | --- | --- | --- | --- | --- |
| COc1nn(-c2cccc(F)c2)nc1Cc1ccnc(C(F)(F)F)c1 [Compound 139] | 40 | 45 | 60 | 80 | 95 | 95 | 98 | 100 | 0 | 10 | 10 | 10 | 98 | – |
| Cc1nn(-c2ccnc(Cl)c2)nc1Cc1ccnc(C(F)(F)F)c1 [Compound 141] | 20 | 25 | 50 | 80 | 100 | 100 | 100 | 100 | – | – | – | – | – | Plant response rating, Barnyardgrass ([3]; Postemergence, 8 g ai/ha, scale 0 to 100): 10; Plant response rating, Barnyardgrass [3, 13]: 20; Plant response rating, Barnyardgrass ([3]; Postemergence, 31 g ai/ha, scale 0 to 100): 20; Plant response rating, Barnyardgrass ([3]; Postemergence, 62 g ai/ha, scale 0 to 100): 30; Plant response rating, Barnyardgrass ([3]; Postemergence, 125 g ai/ha, scale 0 to 100): 40 |
| Cc1nn(-c2ccc(C(F)(F)F)c(F)c2)nc1Oc1ccnc(C(F)(F)F)c1 [Compound 148] | 40 | 60 | 95 | 95 | 95 | 95 | 100 | 100 | 0 | 0 | 0 | 20 | 98 | Plant response rating: Ryegrass, Italian ([4]; Postemergence, 31 g ai/ha, scale 0 to 100 (0 no effect, 100 complete control)): 15; Plant response rating: Ryegrass, Italian ([4]; Postemergence, 62 g ai/ha, scale 0 to 100 (0 no effect, 100 complete control)): 20; Plant response rating: Ryegrass, Italian ([4]; Postemergence, 125 g ai/ha, scale 0 to 100, 0 no effect, 100 complete control): 20; Plant response rating, Ryegrass, Italian [4, 13]: 5; Plant response rating, Ryegrass, Italian [4, 8]: 0; Plant response rating, Ryegrass, Italian [4, 9]: 5; Plant response rating, Ryegrass, Italian [4, 10]: 5; Plant response rating, Ryegrass, Italian [4, 11]: 35 |
| FCc1nn(-c2ccc(F)cc2)nc1Oc1ccnc(C(F)(F)F)c1 [Compound 160] | – | – | – | – | – | – | – | – | – | – | – | – | – | Plant response rating, Waterhemp (Waterhemp): 98; Plant response rating, Oilseed Rape (Oilseed Rape; Postemergence, 16 g ai/ha): 85 |
| CCOCc1nn(-c2ccc(F)cc2)nc1Oc1ccnc(C(F)(F)F)c1 [Compound 163] | – | – | – | – | – | – | – | – | – | – | – | – | – | Plant response rating, Oilseed Rape (Oilseed Rape; Preemergence, 250 g ai/ha): 95 |
